Source: ChEMBL document CHEMBL4251720, “Estrogen Receptor (ER) Subtype Selectivity Identifies 8-Prenylapigenin as an ERβ Agonist from Glycyrrhiza inflata and Highlights the Importance of Chemical and Biological Authentication” (J Nat Prod, 2018)

Experiments:
Estrogen receptor [1] = target: T1, Estrogen receptor (Homo sapiens, UniProt P03372); test: Estrogenic activity at ERalpha in human Ishikawa cells assessed as induction of alkaline phosphatase activity at 0.01 to 1 uM using […] as substrate treated for 96 hrs followed by substrate addition by spectrophotometric method; format: cell-based
T1 sequence (P03372 whole entry): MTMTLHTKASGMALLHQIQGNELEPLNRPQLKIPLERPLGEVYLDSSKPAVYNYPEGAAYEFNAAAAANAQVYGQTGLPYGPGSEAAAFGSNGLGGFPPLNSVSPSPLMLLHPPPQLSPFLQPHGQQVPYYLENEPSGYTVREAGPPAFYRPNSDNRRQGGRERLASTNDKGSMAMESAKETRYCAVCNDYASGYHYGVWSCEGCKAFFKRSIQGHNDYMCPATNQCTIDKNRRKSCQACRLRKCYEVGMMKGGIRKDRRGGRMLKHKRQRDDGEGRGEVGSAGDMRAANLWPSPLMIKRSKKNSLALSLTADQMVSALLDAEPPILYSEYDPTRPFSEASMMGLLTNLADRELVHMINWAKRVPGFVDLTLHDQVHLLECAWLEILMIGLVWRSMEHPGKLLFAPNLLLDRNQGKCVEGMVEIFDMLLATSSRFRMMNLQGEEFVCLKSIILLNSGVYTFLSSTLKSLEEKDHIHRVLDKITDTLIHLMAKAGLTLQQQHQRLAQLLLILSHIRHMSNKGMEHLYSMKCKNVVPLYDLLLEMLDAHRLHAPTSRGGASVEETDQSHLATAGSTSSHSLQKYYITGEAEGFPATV

Estrogen receptor beta [2] = target: T2, Estrogen receptor beta (Homo sapiens, UniProt Q92731)
Description: (§1) Estrogenic activity at ERbeta (unknown origin) expressed in human MDA-MB-231/beta41 cells after 18 hrs by renilla luciferase reporter gene assay

[3] = target: T3, Estrogen receptor alpha (ERalpha) (Homo sapiens, UniProt P03372); test: in vitro; details: Ishikawa cells, probe p-nitrophenol (so in the source) as alkaline phosphatase substrate
T3 sequence (P03372 whole entry): T1 sequence (P03372 whole entry)
Description: Estrogenic activity at ERalpha in human Ishikawa cells assessed as induction of alkaline phosphatase activity using p-nitrophenol as substrate treated for 96 hrs followed by substrate addition by spectrophotometric method relative to estradiol

Estrogen receptor beta [4] = target: T2, Estrogen receptor beta; remark: listed apart in the source
Description: as §1

Estrogen receptor [5] = target: T1, Estrogen receptor
Description: Estrogenic activity at ERalpha in human Ishikawa cells assessed as induction of alkaline phosphatase activity using p-nitrophenol as substrate treated for 96 hrs followed by substrate addition by spectrophotometric method

T2 sequence (Q92731 whole entry): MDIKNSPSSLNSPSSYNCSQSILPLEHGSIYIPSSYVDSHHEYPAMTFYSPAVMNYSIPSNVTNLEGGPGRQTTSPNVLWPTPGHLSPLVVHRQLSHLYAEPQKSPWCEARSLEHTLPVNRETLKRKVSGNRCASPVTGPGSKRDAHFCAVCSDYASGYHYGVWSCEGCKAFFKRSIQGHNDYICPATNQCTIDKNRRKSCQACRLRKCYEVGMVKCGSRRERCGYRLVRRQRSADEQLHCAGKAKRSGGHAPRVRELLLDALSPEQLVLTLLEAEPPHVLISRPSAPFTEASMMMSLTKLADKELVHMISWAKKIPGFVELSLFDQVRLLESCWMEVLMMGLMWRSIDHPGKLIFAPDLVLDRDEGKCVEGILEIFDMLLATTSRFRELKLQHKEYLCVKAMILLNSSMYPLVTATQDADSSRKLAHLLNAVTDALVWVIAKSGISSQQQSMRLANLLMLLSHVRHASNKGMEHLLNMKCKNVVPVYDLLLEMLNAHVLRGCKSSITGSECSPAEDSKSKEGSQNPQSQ

## COc1cc(O)c(C(=O)/C=C/c2ccc(O)cc2)cc1CC=C(C)C
Estrogen receptor [1]
  Activity: Not Active

## CC(C)=CCc1c(O)cc(O)c2c1O[C@H](c1ccc(O)cc1)CC2=O
Estrogen receptor beta [2]
  EC50: 5 nM

## CCCc1c(-c2ccc(O)cc2)nn(-c2ccc(O)cc2)c1-c1ccc(O)cc1 [PROPYLPYRAZOLETRIOL]
[3]
  Emax at 96 h: 119%
Estrogen receptor beta [4]
  EC50: Not Active
Estrogen receptor [5]
  EC50: 1 nM
